# Source: EP0500835B1, “A NOVEL QUINOLONE CARBOXYLIC ACID DERIVATIVE” (DAEWOONG PHARMACEUTICAL CO., LTD., priority 1990, dated 1992)
# Key:
# Oral LD50 in male mice = conditions: mouse, in vivo, orally administered
# Experimental: (§1) The compound of example 2 was orally administered to determine the LD50 for a group of male mice. […] The antibacterial activity for MRSA(Methicillin Resistant Staphyloccocus Aureus) was tested by the compound of example 2.
# P. aeruginosa 1771 = assay: In vitro antibacterial activity, MIC by agar dilution method; type: cell-based; conditions: Pseudomonas aeruginosa; P. aeruginosa 1771; agar dilution method; read-out: In vitro Antibacterial Activity, MIC
# Experimental: (§2) The typical examples of the present compounds were tested for antimicrobial activity in vitro against twenty strains of Gram-positive and Gram-negative microorganisms.
# (§3) The numerals in the table 1 show minimum inhibitory concentrations(MIC in µg/ml). The minimum inhibitory concentrations were determined according to the agar dilution method recommended by Japan Society of Chemotherapy[Chemotherapy., 29, 76 (1981)].
# S. aureus 503 = assay: as above; type: cell-based; conditions: Staphylococcus aureus; S. aureus 503; agar dilution method; read-out: In vitro Antibacterial Activity, MIC
# Experimental: as §2, §3
# S. pyogenes A 308 = assay: as above; type: cell-based; conditions: Streptococcus pyogenes, A308; S. pyogenes A 308; agar dilution method; read-out: In vitro Antibacterial Activity, MIC
# Experimental: as §2, §3
# S. aureus SG 511 = assay: as above; type: cell-based; conditions: Staphylococcus aureus, SG511; S. aureus SG 511; agar dilution method; read-out: In vitro Antibacterial Activity, MIC
# Experimental: as §2, §3
# E. coli DC 2 = assay: as above; type: cell-based; conditions: Escherichia coli, DC2, read-out: In vitro Antibacterial Activity, MIC
# Experimental: as §2, §3
# S. faecium MD 86 = assay: as above; type: cell-based; conditions: Enterococcus faecium, MD86; S. faecium MD 86; agar dilution method; read-out: In vitro Antibacterial Activity, MIC
# Experimental: as §2, §3
# E. coli DC 0 = assay: as above; type: cell-based; conditions: Escherichia coli, DC0, read-out: In vitro Antibacterial Activity, MIC
# Experimental: as §2, §3
# E. coli TEM = assay: as above; type: cell-based; conditions: Escherichia coli; E. coli TEM; agar dilution method; read-out: In vitro Antibacterial Activity, MIC
# Experimental: as §2, §3
# P. aeruginosa 1771M = assay: as above; type: cell-based; conditions: Pseudomonas aeruginosa; P. aeruginosa 1771M; agar dilution method; read-out: In vitro Antibacterial Activity, MIC
# Experimental: as §2, §3
# E. coli 1507E = assay: as above; type: cell-based; conditions: Escherichia coli; E. coli 1507E; agar dilution method; read-out: In vitro Antibacterial Activity, MIC
# Experimental: as §2, §3
# P. aeruginosa 1592E = assay: as above; type: cell-based; conditions: Pseudomonas aeruginosa; P. aeruginosa 1592E; agar dilution method; read-out: In vitro Antibacterial Activity, MIC
# Experimental: as §2, §3
# K. oxytoca 1082E = assay: as above; type: cell-based; conditions: Klebsiella oxytoca; K. oxytoca 1082E; agar dilution method; read-out: In vitro Antibacterial Activity, MIC
# Experimental: as §2, §3
# S. pyogenes A 77 = assay: as above; type: cell-based; conditions: Streptococcus pyogenes, A77; S. pyogenes A 77; agar dilution method; read-out: In vitro Antibacterial Activity, MIC
# Experimental: as §2, §3
# P. aeruginosa 9027 = assay: as above; type: cell-based; conditions: Pseudomonas aeruginosa; P. aeruginosa 9027; agar dilution method; read-out: In vitro Antibacterial Activity, MIC
# Experimental: as §2, §3
# S. aureus 285 = assay: as above; type: cell-based; conditions: Staphylococcus aureus; S. aureus 285; agar dilution method; read-out: In vitro Antibacterial Activity, MIC
# Experimental: as §2, §3
# S. typhimurium = assay: as above; type: cell-based; conditions: Salmonella enterica; S. typhimurium; agar dilution method; read-out: In vitro Antibacterial Activity, MIC
# Experimental: as §2
# (§4) The minimum inhibitory concentrations were determined according to the agar dilution method recommended by Japan Society of Chemotherapy[Chemotherapy., 29, 76 (1981)].
# E. cloacae P99 = assay: as above; type: cell-based; conditions: Enterobacter cloacae; E. cloacae P99; agar dilution method; read-out: In vitro Antibacterial Activity, MIC
# Experimental: as §2, §4
# K. aerogenes 1522E = assay: as above; type: cell-based; conditions: Klebsiella aerogenes; K. aerogenes 1522E; agar dilution method; read-out: In vitro Antibacterial Activity, MIC
# Experimental: as §2, §4
# E. cloacae 1321E = assay: as above; type: cell-based; conditions: Enterobacter cloacae; E. cloacae 1321E; agar dilution method; read-out: In vitro Antibacterial Activity, MIC
# Experimental: as §2, §4
# E. coli O 55 = assay: as above; type: cell-based; conditions: Escherichia coli, O55; E. coli O 55; agar dilution method; read-out: In vitro Antibacterial Activity, MIC
# Experimental: as §2, §4
# [1] = system: Staphylococcus aureus 690E; assay: Antibacterial activity for MRSA; type: cell-based; conditions: Staphylococcus aureus 690E (MRSA)
# Experimental: as §1
# [2] = system: Staphylococcus aureus 752E; assay: Antibacterial activity for MRSA; type: cell-based; conditions: Staphylococcus aureus 752E (MRSA)
# Experimental: as §1
# [3] = system: Staphylococcus aureus 708E; assay: Antibacterial activity for MRSA; type: cell-based; conditions: Staphylococcus aureus 708E (MRSA)
# Experimental: as §1
# [4] = system: Staphylococcus aureus 697E; assay: Antibacterial activity for MRSA; type: cell-based; conditions: Staphylococcus aureus 697E (MRSA)
# Experimental: as §1
# [5] = system: Staphylococcus aureus 706E; assay: Antibacterial activity for MRSA; type: cell-based; conditions: Staphylococcus aureus 706E (MRSA)
# Experimental: as §1
# [6] = system: Staphylococcus aureus 707E; assay: Antibacterial activity for MRSA; type: cell-based; conditions: Staphylococcus aureus 707E (MRSA)
# Experimental: as §1
# [7] = system: Saphylococcus aureus 692E; assay: Antibacterial activity for MRSA; type: cell-based; conditions: Saphylococcus aureus 692E (MRSA)
# Experimental: as §1
# [8] = system: Staphylococcus aureus 703E; assay: Antibacterial activity for MRSA; type: cell-based; conditions: Staphylococcus aureus 703E (MRSA)
# Experimental: as §1
# [9] = system: Staphylococcus aureus 695E; assay: Antibacterial activity for MRSA; type: cell-based; conditions: Staphylococcus aureus 695E (MRSA)
# Experimental: as §1
# [10] = system: Staphylococcus aureus 701E; assay: Antibacterial activity for MRSA; type: cell-based; conditions: Staphylococcus aureus 701E (MRSA)
# Experimental: as §1
# [11] = system: Staphylococcus aureus 694E; assay: Antibacterial activity for MRSA; type: cell-based; conditions: Staphylococcus aureus 694E (MRSA)
# Experimental: as §1
# [12] = system: Staphylococcus aureus 208E; assay: Antibacterial activity for MRSA; type: cell-based; conditions: Staphylococcus aureus 208E (MRSA)
# Experimental: as §1
# [13] = system: Staphylococcus aureus 121E; assay: Antibacterial activity for MRSA; type: cell-based; conditions: Staphylococcus aureus 121E (MRSA)
# Experimental: as §1
# [14] = system: Staphylococcus aureus 693E; assay: Antibacterial activity for MRSA; type: cell-based; conditions: Staphylococcus aureus 693E (MRSA)
# Experimental: as §1
# [15] = system: Staphylococcus aureus 88 E; assay: Antibacterial activity for MRSA; type: cell-based; conditions: Staphylococcus aureus 88 E (MRSA)
# Experimental: as §1
# [16] = system: Staphylococcus aureus 256E; assay: Antibacterial activity for MRSA; type: cell-based; conditions: Staphylococcus aureus 256E (MRSA)
# Experimental: as §1
# [17] = system: Staphylococcus aureus 705E; assay: Antibacterial activity for MRSA; type: cell-based; conditions: Staphylococcus aureus 705E (MRSA)
# Experimental: as §1
# [18] = system: Staphylococcus aureus 714E; assay: Antibacterial activity for MRSA; type: cell-based; conditions: Staphylococcus aureus 714E (MRSA)
# Experimental: as §1
# [19] = system: Staphylococcus aureus 711E; assay: Antibacterial activity for MRSA; type: cell-based; conditions: Staphylococcus aureus 711E (MRSA)
# Experimental: as §1
compound,measurement,setting,value
"CSCC1CCN(c2c(F)cc3c(=O)c(C(=O)O)cn(C4CC4)c3c2F)C1 (stereo not shown) [Example 2, 1-cyclopropyl-6,8-difluoro-7-(3-methylthiomethylpyrrolidinyl)-1,4-dihydro-4-oxo-3-quinolinecarboxylic acid]",LD50,Oral LD50 in male mice,> 3000 mg/kg
same,MIC,P. aeruginosa 1771,0.391 µg/mL
same,MIC,S. aureus 503,0.002 µg/mL
same,MIC,S. pyogenes A 308,0.195 µg/mL
same,MIC,S. aureus SG 511,0.002 µg/mL
same,MIC,E. coli DC 2,0.781 µg/mL
same,MIC,S. faecium MD 86,0.195 µg/mL
same,MIC,E. coli DC 0,0.781 µg/mL
same,MIC,E. coli TEM,0.391 µg/mL
same,MIC,P. aeruginosa 1771M,0.098 µg/mL
same,MIC,E. coli 1507E,0.391 µg/mL
same,MIC,P. aeruginosa 1592E,0.781 µg/mL
same,MIC,K. oxytoca 1082E,0.007 µg/mL
same,MIC,S. pyogenes A 77,0.098 µg/mL
same,MIC,P. aeruginosa 9027,0.781 µg/mL
same,MIC,S. aureus 285,0.002 µg/mL
same,MIC,S. typhimurium,0.049 µg/mL
same,MIC,E. cloacae P99,0.098 µg/mL
same,MIC,K. aerogenes 1522E,0.098 µg/mL
same,MIC,E. cloacae 1321E,0.025 µg/mL
same,MIC,E. coli O 55,0.013 µg/mL
same,Antibacterial Activity for MRSA,[1],0.004 µg/mL
same,Antibacterial Activity for MRSA,[2],0.013 µg/mL
same,Antibacterial Activity for MRSA,[3],0.007 µg/mL
same,Antibacterial Activity for MRSA,[4],0.013 µg/mL
same,Antibacterial Activity for MRSA,[5],0.013 µg/mL
same,Antibacterial Activity for MRSA,[6],0.007 µg/mL
same,Antibacterial Activity for MRSA,[7],0.004 µg/mL
same,Antibacterial Activity for MRSA,[8],0.007 µg/mL
same,Antibacterial Activity for MRSA,[9],0.013 µg/mL
same,Antibacterial Activity for MRSA,[10],0.013 µg/mL
same,Antibacterial Activity for MRSA,[11],0.013 µg/mL
same,Antibacterial Activity for MRSA,[12],0.025 µg/mL
same,Antibacterial Activity for MRSA,[13],0.013 µg/mL
same,Antibacterial Activity for MRSA,[14],0.007 µg/mL
same,Antibacterial Activity for MRSA,[15],0.004 µg/mL
same,Antibacterial Activity for MRSA,[16],0.013 µg/mL
same,Antibacterial Activity for MRSA,[17],0.013 µg/mL
same,Antibacterial Activity for MRSA,[18],0.007 µg/mL
same,Antibacterial Activity for MRSA,[19],0.013 µg/mL
